The values below come from patent publication US8603493B2, “Carbosilane dendrimers, preparation method thereof and use of same” (Dendrico, S.L., priority 2005, dated 2013).

The subject of data set [1] is peripheral blood mononuclear cells (PBMC). As to the kind of experiment: Mitochondrial activity: MTT on PBMC. It is filed as cell-based, human. The conditions noted are these: for Cell viability after incubation with dendrimers according to MTT: 48 hours, relative to untreated control; for mitochondrial viability (comparison among dendrimers): increasing concentrations of CBS or SF. On the procedure:
The toxicity of dendrimers IM8, IM16, ClNH4, NN, Phe and the commercial controls SF (Superfect) and G4 were tested. Different quantities were taken of each one of them so that the final concentrations with which the cells were incubated were 1 μM, 5 μM, 10 μM, 20 μM and 100 μM.
The blood came from adult donors or the umbilical cord of health newborns. Said blood was diluted ½ with PBS and it was centrifuged in a Ficoll gradient. After said centrifugation, the PBMC halo was recovered and two subsequent washing-centrifuging cycles were carried out. The resulting PBMC were resuspended in complete culture medium with 10% FCS, antibiotics and glutamine.
100 μl of 10% complete medium of foetal calf serum, antibiotics and glutamine were added to a volume of 60 μl of RPMI with the corresponding dendrimer tested. 160 μl were then added to the cells seeded in 340 μl, completing a final volume of 500 μl. The cells were incubated in this way for 48 hours and then the effect of the incubation with the dendrimers was evaluated by its visual examination and by the evaluation of the mitochondrial activity.
A curve of mitochondrial activity was performed of the dendrimer concentration after 48 hours. […] It is a […] test based on the selective capacity of the cells viable for reducing 3-(4,5-dimethylthiazol-2-il)-2,5-diphenyl tetrazolium bromide in insoluble formazan crystals. After 48 hours of incubation of the PBMC with different concentrations of dendrimers in a 96-well plate (100,000/well), the supernatant which contained dendrimer was removed and it was replaced by 200 μl of a culture medium without serum or red phenol (Optimem). To avoid the loss of cells in this step and subsequently of formazan, a modification had been made of the protocol, seeding the PBMC in total human plasma fibronectin (Sigma®) at a concentration of 5-10 μg/ml, so that during the 4-hour incubation they fixed to the bottom of the well. In addition to the 200 μl of Optimem, 20 μl of filtered MTT were added to achieve its sterility (Thiazolyl Blue, Sigma®) in PBS pH 7.4 at a concentration of 5 mg/ml to achieve a final concentration per well of 0.5 mg MTT/ml. After 4 hours of incubation at 37° C. with 5% CO2 atmosphere, the plate was centrifuged at 2000 rpm and the supernatant with the excess MTT that had not reacted was subsequently removed. The formazan crystals were observed under a phase contrast microscope and later dissolved with 200 μl of dimethyl sulfoxide (DMSO). The plate was stirred at 700 rpm in an Eppendorf® stirrer-heater to ensure the correct dissolution of said crystals. The concentration of formazan ([A]) was determined by spectrometry using a plate reader at a wavelength of 570 nm with a reference of 690 nm. The spectrophotometry was calibrated to zero using Optimem without cells. The relative cell viability (%) with respect to the control (untreated cells), based on mitochondrial activity, was calculated based on this formula: [A] test/[A] control×100. Each dendrimer concentration was tested in triplicate, following the guidelines of the ATCC.

Data set [2] deals with ODN PPT. The data set is described as follows: Stability of the dendriplexes in aqueous solution in accordance with time. To be noted: after 24 hours. Format: physicochemical. As for the experimental part:
Different samples of dendriplexes were prepared in aqueous solution formed between the ODN PPT and dendrimers IM8, IM16 and NN at a 2/1 charge ratio according to Example 31 and electrophoresis was performed after different times since the preparation of the samples, specifically 0 hours, 6 hours and 24 hours. During those times, the dendriplexes were maintained in conditions which imitate the physiological conditions: 37° C., in 5% CO2 atmosphere. The results are shown in FIG. 5, wherein the gel of FIG. 5a corresponds to the sample of 0 hours, that of FIG. 5b to the samples after 6 hours and that of FIG. 5c to the samples after 24 hours. In the three cases, a, b and c, the samples appear in the lanes following this order: […]

In data set [3] the test system is PBMC. As to the kind of experiment: Flow cytometry test (size and complexity; live cells vs apoptosis-necrosis). The conditions noted are these: 72 hours, same concentrations as Trypan Blue test. It is filed as cell-based, human. As for the experimental part: The evaluation time on this occasion was 72 hours. The toxicity was evaluated on PBMC, produced in the manner described in Example 38. […] The ODN used was PPT, in the following way: • [ODN PPT] in the complex with the CBS: 2.57 (0.88 μM) • [ODN PPT] in the complex with SF: 0.34 μM • [ODN PPT] in the complex with G4: 1 μM […] The cells were either incubated with said complexes, a mixture of equal volume which contained ODN without CBS, a mixture which contained dendrimer alone, or with a mixture which contained only RPMI+complete medium which was used as negative control. The cells and/or the supernatant were then collected to be analysed by flow cytometry, confocal microscopy or cell DNA extraction. The percentages of cells with size and complexity corresponding to cells in apoptosis-necrosis were compared with the live cells. For this, the size (FW) and the complexity (SD) was evaluated by flow cytometry. To do this, a region was drawn around the cells with FW and SD corresponding to cells in apoptosis-necrosis and another around the cells with FW and SD corresponding to live cells. The percentages of cells present in each slide were compared. The graphics produced are shown in FIG. 15, wherein the X-axis represents the size (FW) and the Y-axis the complexity (SD). […] The cloud of dark cells corresponds to cells in apoptosis necrosis. The live cells are represented in grey.

Data set [4] deals with erythrocytes. As to the kind of experiment: Visual examination of erythrocytes (hemagglutination). Format: cell-based, human. On the procedure: A visual examination was carried out to detect the presence/absence of hemagglutination and quantification of haemoglobin release (haemolysis test) by spectrophotometry. ClNH4 was excluded from the dendrimers of previous Example 38, as the result had been more toxic for lymphocytes, and the results were compared with those produced for a PAMAN type generation 4 dendrimer.
The erythrocytes were obtained after being separated from the PBMC using the same Ficoll gradient cited in the previous Example. They were diluted in PBS to be able to view them individually. The cells were resuspended in 500 μl of PBS and were seeded in a 24-well plate (300,000/well). As positive control, cells treated with 0.2% Triton X-100 were used. Negative control: PBS (blank). The erythrocytes were incubated with different dendrimer concentrations. The presence of hemagglutination, number of cells and release of haemoglobin by hour were evaluated by collecting 100 μl of supernatant and measuring absorbencies by spectrophotometry using a plate reader at a wavelength of 550 nm and 690 nm as reference.

Turning to `C[N+](C)(C)CCO[Si](C)(CCC[Si](C)(CCC[Si](CCC[Si](C)(CCC[Si](C)(OCC[N+](C)(C)C)OCC[N+](C)(C)C)CCC[Si](C)(OCC[N+](C)(C)C)OCC[N+](C)(C)C)(CCC[Si](C)(CCC[Si](C)(OCC[N+](C)(C)C)OCC[N+](C)(C)C)CCC[Si](C)(OCC[N+](C)(C)C)OCC[N+](C)(C)C)CCC[Si](C)(CCC[Si](C)(OCC[N+](C)(C)C)OCC[N+](C)(C)C)CCC[Si](C)(OCC[N+](C)(C)C)OCC[N+](C)(C)C)CCC[Si](C)(OCC[N+](C)(C)C)OCC[N+](C)(C)C)OCC[N+](C)(C)C.[I-].[I-].[I-].[I-].[I-].[I-].[I-].[I-].[I-].[I-].[I-].[I-].[I-].[I-].[I-].[I-]` [IM16, 2G-[Si(OCH2CH2NMe3^+I^−)2]8], the “Cell viability after incubation with dendrimers according to MTT” value (from here on “Cell viability after incubation”) was 94% in data set [1] (1 μM); 99% in data set [1] (5 μM); 63% in data set [1] (10 μM); 37% in data set [1] (20 μM); 11% in data set [1] (100 μM). In addition, the “mitochondrial viability (comparison among dendrimers)” value in data set [1] was “greater mitochondrial viability”. For the same molecule, in data set [2], the “ODN released from dendrimer” value is recorded as approximately 100%. The “Apoptosis-necrosis (%)” value in data set [3] stood at 28%. Also, in data set [3], the “Live cells (%)” value came to 67%. Moreover, the “induction of hemagglutination / haemolysis” value in data set [4] is on record as “induces agglutination”. For the same molecule, the “order of hemagglutination from greater to lesser” value (“order of hemagglutination” below) in data set [4] is on record as “G4>Phe>IM16>IM8>NN”. For the same molecule, the “Visual examination of erythrocytes incubated with dendrimers” value (shortened to “Visual examination”) in data set [4] (1 μM) was “O.K”; in data set [4] (5 μM), “Ag++”; in data set [4] (20 μM) it was “No cells”.

Consider `C[N+](C)(C)CCO[Si](C)(C)CCC[Si](C)(CCC[Si](CCC[Si](C)(CCC[Si](C)(C)OCC[N+](C)(C)C)CCC[Si](C)(C)OCC[N+](C)(C)C)(CCC[Si](C)(CCC[Si](C)(C)OCC[N+](C)(C)C)CCC[Si](C)(C)OCC[N+](C)(C)C)CCC[Si](C)(CCC[Si](C)(C)OCC[N+](C)(C)C)CCC[Si](C)(C)OCC[N+](C)(C)C)CCC[Si](C)(C)OCC[N+](C)(C)C.[I-].[I-].[I-].[I-].[I-].[I-].[I-].[I-]` [IM8, 2G-[Si(OCH2CH2NMe3^+I^−)]8], for which the “Cell viability after incubation” value stood at 98% in data set [1] (1 μM); 60% in data set [1] (5 μM); 18% in data set [1] (10 μM); 12% in data set [1] (20 μM); 10% in data set [1] (100 μM). The “ODN released from dendrimer” value in data set [2] was approximately 100%. In data set [3], the “Apoptosis-necrosis (%)” value is given as 36%. Further, the “Live cells (%)” value in data set [3] is on record as 59%. Also, in data set [4], the “order of hemagglutination” value is “G4>Phe>IM16>IM8>NN”. For the same molecule, the “Visual examination” value is on record as “O.K” in data set [4] (1 μM), “Ag+” in data set [4] (5 μM), “Ag+” in data set [4] (10 μM) and “No cells” in data set [4] (20 μM).

Take `C[Si](C)(CCCN)CCC[Si](C)(CCC[Si](C)(C)CCCN)CCC[Si](CCC[Si](C)(CCC[Si](C)(C)CCCN)CCC[Si](C)(C)CCCN)(CCC[Si](C)(CCC[Si](C)(C)CCCN)CCC[Si](C)(C)CCCN)CCC[Si](C)(CCC[Si](C)(C)CCCN)CCC[Si](C)(C)CCCN.Cl.Cl.Cl.Cl.Cl.Cl.Cl.Cl` [ClNH4, 2G-[Si(CH2)3NH3^+Cl^−]8]: the “Cell viability after incubation” value in data set [1] (1 μM) was 65.5%; in data set [1] (5 μM) it was 47%; in data set [1] (10 μM) it was 40%; in data set [1] (20 μM), 16%; in data set [1] (100 μM), 14%. The “Apoptosis-necrosis (%)” value in data set [3] was determined as 26%. Moreover, in data set [3], the “Live cells (%)” value is recorded as 71%.

For the molecule `C[N+](C)(C)CCOc1cc(CO[Si](C)(C)CCC[Si](C)(CCC[Si](CCC[Si](C)(CCC[Si](C)(C)OCc2cc(OCC[N+](C)(C)C)cc(OCC[N+](C)(C)C)c2)CCC[Si](C)(C)OCc2cc(OCC[N+](C)(C)C)cc(OCC[N+](C)(C)C)c2)(CCC[Si](C)(CCC[Si](C)(C)OCc2cc(OCC[N+](C)(C)C)cc(OCC[N+](C)(C)C)c2)CCC[Si](C)(C)OCc2cc(OCC[N+](C)(C)C)cc(OCC[N+](C)(C)C)c2)CCC[Si](C)(CCC[Si](C)(C)OCc2cc(OCC[N+](C)(C)C)cc(OCC[N+](C)(C)C)c2)CCC[Si](C)(C)OCc2cc(OCC[N+](C)(C)C)cc(OCC[N+](C)(C)C)c2)CCC[Si](C)(C)OCc2cc(OCC[N+](C)(C)C)cc(OCC[N+](C)(C)C)c2)cc(OCC[N+](C)(C)C)c1.[I-].[I-].[I-].[I-].[I-].[I-].[I-].[I-].[I-].[I-].[I-].[I-].[I-].[I-].[I-].[I-]` [Phe, 2G-[Si(OCH2—(C6H3)-3,5-(OCH2CH2NMe3^+I^−)2)]8], the “Cell viability after incubation” value in data set [1] (1 μM) is reported as 83%; in data set [1] (5 μM) it was 77%; in data set [1] (10 μM), 71%; in data set [1] (20 μM), 54%; in data set [1] (100 μM) it was 14%. For the same molecule, the “mitochondrial viability (comparison among dendrimers)” value in data set [1] is reported as “greater mitochondrial viability”. Moreover, the “Apoptosis-necrosis (%)” value in data set [3] came out at 33%. The “Live cells (%)” value in data set [3] was 61%. Moreover, the “induction of hemagglutination / haemolysis” value in data set [4] was “induces hemagglutination”. In addition, the “order of hemagglutination” value in data set [4] is on record as “G4>Phe>IM16>IM8>NN”. For the same molecule, the “Visual examination” value in data set [4] (1 μM) is given as “Ag+”; in data set [4] (5 μM) it was “Ag+++”; in data set [4] (10 μM) it was “Ag+++”.
